According to paper PMC6105845, “Nucleotide Prodrug Containing a Nonproteinogenic Amino Acid To Improve Oral Delivery of a Hepatitis C Virus Treatment” (Antimicrobial Agents and Chemotherapy, 2018):

Target: HINT1 (Homo sapiens, UniProt P49773)
Experiment: P-N bond cleavage of metabolite X by HINT1
Format: biochemical
Experimental: Biochemical assays studying prodrug cleavage have been described previously ([8]). In brief, the cleavages of GS2 by CATA, CES1, CES2, and HINT1 were assessed in vitro. The reaction substrates and products were monitored over time by high-performance liquid chromatography (HPLC).

Sequence of HINT1 (P49773 whole entry): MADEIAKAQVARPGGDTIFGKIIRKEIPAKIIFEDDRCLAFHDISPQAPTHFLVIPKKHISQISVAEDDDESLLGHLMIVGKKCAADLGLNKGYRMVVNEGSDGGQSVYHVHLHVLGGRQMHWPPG

| HINT1 specific activity higher than toward metabolite X of GS-6620 [fold] | HINT1 specific activity, P-N bond cleavage [pmol/min/µg] | Compound |
| --- | --- | --- |
| 5.7 | 341 | CC(C)(NP(=O)(O)OC[C@H]1O[C@@](C#N)(c2ccc3c(N)ncnn23)[C@](C)(O)[C@@H]1O)C(=O)O [metabolite X of GS2] |
|  | 60 | C[C@H](NP(=O)(O)OC[C@H]1O[C@@](C#N)(c2ccc3c(N)ncnn23)[C@](C)(O)[C@@H]1O)C(=O)O [metabolite X of GS-6620] |
